Several values for one entry are separate records, joined by “and”; a condition that tells them apart may be missing. Identical values can stand only once.
Tests used:
[1] = molecular target: T1, HLA-A2 (Homo sapiens, UniProt P04439, D140Y/D185E/D98H/E176V/E277Q/G131W/G231S/I119V/I121R/I166T/I218V/L300P/L318F/N151K/N90K/P208A/P217A/Q86G/Q94H/R138H/R169H/T345S); assay: Peptide binding to HLA-A2 on T2A2 cells (flow cytometry); conditions: peptide 0 to 50 μg/ml, FIG. 1A
T1 construct: endogenous in cells; host or cells: T2A2 / 174CEM-T2 (T2) transport deletion mutant cell line
Description: Single-color flow cytometric analysis. The method for single-color flow cytometric analysis was described previously (F. Guadagni et al., 1990, Cancer Res. 50:6248–6255). Briefly, cells were washed three times with cold Ca^2+ and Mg^2+-free DPBS and then stained for 1 h with mAb against HLA-A2 (A2,69, One Lambda, Inc., Canoga Park, Calif.), using 10 μg of the 1× working dilution per 10^6 cells. Mineral oil plasmacytoma-104E (Cappel/Organon Teknika Corp., West Chester, Pa.) was used as an isotype control. The cells were washed three times and incubated with a 1:100 dilution of fluorescein isothiocyanate (FITC)-labeled goat anti-mouse immunoglobulin (IgG) (Kirkegaard and Perry Laboratories, Gaithersburg, Md.). The cells were immediately analyzed using a Becton Dickinson FACScan equipped with a blue laser with an excitation of […] at 488 nm. Data were gathered from 10,000 live cells, stored and used to generate results.
Peptide Binding to HLA-A2. […] Briefly, 1×10^6 cells in serum-free Iscove's modified Dulbecco's complete medium were incubated with peptides at a concentration of 50 μg/ml in 24 well culture plates at 37° C. in 5% CO2. Flow cytometry for peptide binding was performed using T2 cells and single-color analysis. After cells were washed three times in DPBS, as described above, they were incubated for 1 h with HLA-A2 specific MAb (One Lambda, Inc.) using 10 μg of a 1× working dilution per 10^6 cells. UPC-10 (Cappel/Organon Teknika) was used as isotype control. The cells were washed three times and incubated with 1:100 dilution of FITC-labeled anti-mouse IgG (Becton Dickinson). Analysis was conducted with the FACScan, as described above. Cells were maintained on ice during all cell preparation and staining.
The four analogs were then tested for binding to the HLA-A2 positive T2A2 cells as described in the Examples section. The NCA peptide was previously shown to not bind to HLA-A2, and was used as a negative […] control. Peptides were added to T2A2 cells at concentrations of 0 to 50 μg/ml.

[2] = test system: DCs; assay: IL-12 production by peptide-pulsed DCs in the presence of T cells; format: cell-based, human
Description: It has been previously shown that the activation of T cells by peptidepulsed DCs is related to the level of IL-12 production by the DCs. Studies were therefore conducted to determine the levels of IL-12 production by DCs pulsed with PSA-3 and PSA-3A peptides in the presence of T cells. […] When DCs pulsed with the PSA3A peptide were incubated with both T cell lines, the DCs incubated with the T-PSA-3A line again produced higher levels of IL-12 than those peptide-pulsed DCs incubated with the T cell line T-PSA-3 (Table 3).

[3] = test system: T-PSA-3A cells; assay: IFN-γ production by T cell line stimulated with peptide-pulsed DCs (ELISA); format: cell-based, human; conditions: peptide 25 μg/ml
Description: (§1) Detection of Cytokines. Supernatant of T cells exposed for 24 h to peptide-pulsed infected DC, rV-PSA infected DC, or rV-PSA-3A infected DC, in IL-2-free medium at various responder: stimulator ratios, were screened for secretion of IFN-γ using an ELISA kit (R & D Systems, Minneapolis, Minn.). The results were calculated as pg/ml. A Cytometric Bead Array (CBA) system (BD PharMingen, San Diego, Calif.) was also used to determine the secretion of multiple cytokines by specific T cell lines. The CBA system uses the fluorescence detection by flow cytometry to measure soluble analytes in a particle-based immunoassay. The BD human Th1/Th2 cytokine CBA Kit was employed to measure IL-2, IL-4, IL-5, IL-10, TNF-α, and IFN-γ protein levels in a single sample. The cytokine capture beads were mixed with PE-conjugated detection antibodies and then incubated with recombinant cytokine standards or test samples to form sandwich complexes. The samples results were generated in graphical and tabular format using BD CBA analysis software. The results were calculated as pg/ml.
Table 2: Production of IFN-γ by a T cell line stimulated with PSA-3 or agonist PSA-3A peptides. The PSA-specific T cell line T-PSA-3A was used as effector cells at IVS-3. T-PSA-3A cells were stimulated with irradiated HLA-A2 positive allogeneic DCs either pulsed with PSA-3 or PSA-3A peptide at a concentration of 25 μg/ml and an effector-to-APC ratio of 10:1. After 24-h culture supernatants were collected and screened for the secretion of IFN-γ. APC=antigen […].

[4] = test system: CD8+ cells (T-PSA-3); assay: Apoptosis (TUNEL) assay of peptide-stimulated T cells; format: cell-based, human; conditions: T cells stimulated with peptide-pulsed autologous B cells, IVS-5, TUNEL
Excerpt: FIGS. 5A–5C. DNA fragmentation in peptide stimulated T cells using the TUNEL assay. Apoptosis of CD8^+ cells activated by PSA peptide pulsed autologous B cells. FIG. 5A: T-PSA-3 cells stimulated with B cells with no peptide; FIG. 5B: T-PSA-3 cells stimulated with B cells pulsed with PSA-3 peptide; FIG. 5C: T-PSA-3 cells stimulated with B cells pulsed with PSA-3A peptide. Numbers in each histogram indicate percent of apoptotic cells (cells above line) as described in the Examples section.
Apoptosis Assay. T cells were incubated for 48 h in the presence of peptide-pulsed autologous B cells as described in the IVS procedure, above, and replated to 96-well plates for 24 h. Apoptosis was analyzed using the terminal deoxynucleotidyl transferase-mediated nick-end labeling (TUNEL) assay (Y. Gavrieli et al., 1992, J. Cell Biol. 119:493–501).

[5] = test system: HLA-A2/K^b transgenic mice; assay: Immunization of HLA-A2.1/Kb transgenic mice with peptide-pulsed DCs, IFN-γ production by T cells; format: in vivo, mouse; conditions: 24 h
Excerpt: Transgenic Mice. HLA-A2.1/K^b transgenic mice were kindly provided by Dr. L. Sherman (Scripps Laboratories, San Diego, Calif.). Transgenic mice express the product of the HLA-A2.1/Kb chimeric gene in which the alpha-3 domain of the heavy chain is replaced by mouse H-2/K^b domain, but the HLA-A2.1 alpha-1 and alpha-2 domains are unaltered (A. Vitiello et al., 1991, J. Exp. Med. 173:1007–1015; V. H. Engelhard et al., 1991, J. Immunol. 46:1226–1232).
In Vivo Immunization and Murine T cell Cultures. Three groups of HLA-A2.1/K^b transgenic mice (three mice per group) were immunized s.c. (subcutaneously) in the base of the tail with PSA-3 peptide-pulsed HLA-A2.1/K^b DC, PSA-3A peptide-pulsed DCs from HLA-A2.1/K^b transgenic mice, or DCs only. Peptides were used at a concentration of 50 μg/ml and DCs were used at 1×10^6 cell/mouse/injection. A total of three injections were given to each animal, 2 weeks apart. Mice injected with DCs only were used as controls. Mice were sacrificed 7 days after the last injection, and spleen cells were restimulated in vitro with 25 μg/ml of PSA-3 or PSA3A peptide with irradiated syngeneic spleen cell for 6 days. The cytokine production of these bulk cultures was tested. Peptide-pulsed Jurkat A2 (JA2 K^b) cells were used as stimulator cells. Jurkat 0201 K^b cells are stable transfectants of the human T cell leukemia line, Jurkat, which express the product of HLA-A0201K^b climeric gene (L. A. Sherman et al., 1992, Science 258:815–818).
The HLA-A2/K^b transgenic mouse has been previously reported to aid in the determination of the immunogenicity of HLA-A2 peptides for humans. This in vivo system was thus employed to further analyze and compare the immunogenicity of the PSA-3A peptide with that of the native PSA-3 peptide. DCs from the HLA-A2/K^b transgenic mice were pulsed with either the PSA-3 or the PSA-3A peptide and used to vaccinate HLA-A2b mice. DCs alone (no peptide) were also used as a control vaccine. After three vaccinations at 2-week intervals, T cells were isolated from splenocytes obtained 2 weeks after the last vaccination. The T cells were then incubated with Jurkat A2/K^b cells pulsed with the PSA-3 peptide, the PSA-3A peptide, or no peptide, and production of INF-γ was measured from supernatants after 24 h.

[6] = test system: T-PSA-3 cells; assay: Cytometric Bead Array cytokine production by peptide-stimulated T cells; format: cell-based, human; conditions: T-PSA-3 + peptide-pulsed autologous B cells, 24 h supernatant
Description: as §1
The cytokine profile of T cells stimulated with APCs pulsed with either the PSA-3 or the PSA-3A peptide was then analyzed. The T cell line derived using the PSA-3 peptide was used in these studies, and the APCs used were autologous B cells. A Cytometric Bead Array (CBA) assay was used for analysis (see Examples section) using supernatant fluids obtained 24 h after stimulation. FIGS. 6A–6C illustrate […] of the 10 internal standards used for the calibration of the results obtained in this assay. FIGS. 6D–6F show the levels of each of six cytokines produced by T cells stimulated with APCs pulsed with no peptide, PSA-3A peptide, and PSA-3 peptide, respectively. […] The results obtained for IL-5 will be discussed below (Conclusions section).

| Sequence | Binding to HLA-A2 (relative fluorescence, MFI) [1] | IL-12 PRODUCTION ([2]; APC DC, T cell line T-PSA-3, peptide 25 μg/ml, 10:1, 24 h, IVS-4) | IL-12 PRODUCTION ([2]; APC DC, T cell line T-PSA-3A, peptide 25 μg/ml, 10:1, 24 h, IVS-4) | IL-12 PRODUCTION ([2]; no APC, T cell line T-PSA-3, peptide 25 μg/ml, 24 h) | IL-12 PRODUCTION ([2]; no APC, T cell line T-PSA-3A, peptide 25 μg/ml, 24 h) | PRODUCTION OF IFN-γ ([3]; APC DCs, T-PSA-3A T cells present, effector-to-APC 10:1, 24 h, IVS-3) | PRODUCTION OF IFN-γ ([3]; APC DCs, no T cell, 24 h) | PRODUCTION OF IFN-γ ([3]; no APC, T-PSA-3A T cells present, 24 h) | Apoptotic CD8+ cells [4] | Production of IFN-γ ([5]; label = peptide pulsed on immunizing DCs, Jurkat A2/K^b cells pulsed with PSA-3A (25 μg/ml)) | Production of IFN-γ ([5]; label = peptide pulsed on immunizing DCs, Jurkat A2/K^b cells with no peptide) | Production of IFN-γ ([5]; label = peptide pulsed on immunizing DCs, T cells restimulated with Jurkat A2/K^b cells pulsed with PSA-3 (25 μg/ml)) | Production of IFN-γ ([5]; mice immunized with DCs (no peptide), label = peptide pulsed on Jurkat A2/K^b cells) | Production of IL-4 [6] | Production of IL-10 [6] | Production of TNF-α [6] |
| --- | --- | --- | --- | --- | --- | --- | --- | --- | --- | --- | --- | --- | --- | --- | --- | --- |
| VISNDVCAQL (SEQ ID NO:2) [1–163] | no binding | – | – | – | – | – | – | – | – | – | – | – | – | – | – | – |
| VISNDVCAQV (SEQ ID NO:1) [PSA-3, reference compound] | – | 5.0 pg/ml/5 × 10^5 DC | 10.5 pg/ml/5 × 10^5 DC | <0.6 pg/ml/5 × 10^5 DC | <0.6 pg/ml/5 × 10^5 DC | 280 pg/mL | <15 pg/mL | <15 pg/mL | 4.9% and 4.5% | 1,969.0 pg/ml/10^6 cells | <37.0 pg/ml/10^6 cells | 1,908.0 pg/ml/10^6 cells | <37.0 pg/ml/10^6 cells | Low or undetectable levels | Low or undetectable levels | No TNF-α could be detected |
| YISNDVCAQV (SEQ ID NO:4) [Y154] | higher levels than PSA-3 | – | – | – | – | – | – | – | – | – | – | – | – | – | – | – |
